{
  "source": "patent US20050003449A1",
  "about": "“Method for determining molecular affinities for human serum albumin” (priority 2003, published 2005)",
  "key": {"HSA (fraction V)": {"target": "HSA (fraction V) (Homo sapiens, UniProt P02768)", "sequence (P02768 25-609)": "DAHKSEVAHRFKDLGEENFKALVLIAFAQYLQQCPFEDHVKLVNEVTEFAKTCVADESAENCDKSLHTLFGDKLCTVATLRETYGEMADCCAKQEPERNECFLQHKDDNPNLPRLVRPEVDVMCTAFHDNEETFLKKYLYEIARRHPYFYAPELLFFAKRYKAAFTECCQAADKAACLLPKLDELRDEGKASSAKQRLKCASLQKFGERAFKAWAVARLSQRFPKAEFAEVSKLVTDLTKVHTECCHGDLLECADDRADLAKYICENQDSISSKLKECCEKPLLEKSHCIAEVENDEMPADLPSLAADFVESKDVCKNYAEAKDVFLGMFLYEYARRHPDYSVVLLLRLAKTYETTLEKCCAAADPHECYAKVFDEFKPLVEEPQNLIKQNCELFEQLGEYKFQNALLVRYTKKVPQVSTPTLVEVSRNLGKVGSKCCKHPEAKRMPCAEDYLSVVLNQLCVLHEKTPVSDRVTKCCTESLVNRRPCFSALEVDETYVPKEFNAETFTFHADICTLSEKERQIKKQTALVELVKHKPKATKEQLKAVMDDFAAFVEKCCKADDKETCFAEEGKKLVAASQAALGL", "assay": "biochemical"}, "HSA (V)": {"target": "T1, HSA (V) (Homo sapiens, UniProt P02768)", "T1 construct": "Human serum albumin, fraction V, with a purity ≧95% as indicated by cellulose acetate electrophoresis; purchased Calbiochem 12666", "T1 sequence (P02768 25-609)": "as above", "assay": "Isothermal titration calorimetry of the probe with HSA", "type": "binding", "conditions": "ITC, PBS", "protocol": "The bottom plot represents the isothermal titrating calorimetry results integrated enthalpies and least-squares curve fit for the probe interaction with HSA (V) in PBS.\nIsothermal titration calorimetry experiments were performed using an OMEGA titrating microcalorimeter from Microcal, Inc. (Northampton, Mass.). Data collection, analysis, and plotting were performed using a Windows-based software package (Origin 5.0) supplied by the instrument vendor. The titrating microcalorimeter consisted of a sample and reference cell held in an adiabatic enclosure. The calorimeter was calibrated by comparing the measured areas of applied heat pulses to known values. Known and experimentally measured values agreed to within 2%.\nThe probe was prepared in DMSO at 10 mM and diluted to 500 μM in PBS. the probe and HSA solutions were degassed prior to analysis. The reference cell was filled with PBS. A 20 μM solution of HSA in PBS was placed in the 1.37 mL sample cell and the probe (0.5 mM) was held in a 250 μL syringe. Thirty injections (6 μL each) of the probe were made by a computer-controlled stepper motor into the sample cell filled with HSA held at 37° C. The syringe stir rate was 400 rpm. The heat adsorbed or released with each injection was measured by a thermoelectric device connected to a Microcal nanovolt preamplifier. Titration isotherms for the binding interactions were comprised of the differential heat flow for each injection. Heats of dilution obtained by injecting ligand into dialysate buffer were minor but were subtracted prior to fitting the data. Isotherms fit well to a single site model (Wiseman, T., et. al. Anal. Biochem (1989) 179, 131-137) using an iterative nonlinear least-squares algorithm included with the instrument.\nAll parameters were floated during the iterations until a minimum %^2 was obtained between experimental and fit data. […] The change in free energy (ΔG) and change in entropy (ΔS) were determined using the Gibbs' free energy equation. […]"}},
  "data": [
    {"smiles": "Cn1c(/C=C/c2ccc(C#N)cc2C(=O)O)cc2ccccc21", "note": "[the probe, 5-cyano-2-[(E)-2-(1-methyl-1H-indol-2-yl)ethenyl]benzoic acid]", "values": [
      {"measurement": "Kd", "setting": "HSA (fraction V)", "result": 0.39, "unit": "µM"},
      {"measurement": "enthalpy change for the interaction", "setting": "HSA (V)", "result": -10.4, "unit": "kcal/M"},
      {"measurement": "Kd", "setting": "HSA (V); read-out: average affinity for all binding interactions", "result": 15, "unit": "µM"},
      {"measurement": "molecules of the probe bound per HSA (stoichiometry)", "setting": "HSA (V); single-site model", "result": "approximately 2"}
    ]}
  ]
}
